# Reference: the supplement of paper PMC11208160
# Experiment: recombinant UMI read abundance after kanamycin selection (control-corrected) (log10(CPM+1)); higher = more efficient recombination; extreme values may be limits of the assay; sequences stand for … in AGTGCAGAGAAAATCGGCCAGTTTTCTCTGCCTGCAGTCCGCATGCCGTGGGACCCCTTGGGTTCTAACCTGTTGCCTAGATTTATGCAGCGGACTGCCTTTCTCCCAAAGTGATAAACCGG…AGGTTGGTTTCACT; site = the 11-nt donor
# Method in brief: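 Sequencing read counts were converted to CPM, averaged over two replicates and scaled by control-derived factors. Results are given as log10(CPM+1). The reads covered the donor–target junction of recombinant UMIs from a pooled Escherichia coli screen of donor and donor-binding-loop pairs for the IS621 bridge recombinase.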
# 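Further: IS621 bridge recombinase in Escherichia coli cells against a fixed T5 target plasmid.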
row,Sequence,recombinant UMI read abundance (log10)
1,CGCAAGACATGGACCGGTTTTCCCGGTAATCCGTATTTGGT (site CGCAAGACTAC),1.19
2,CGCAATCCATGGACCGGTTTTCCCGGTAATCCGTATTTGAA (site AGCAATCCTTT),0.0753
3,CGCAATCCATGGACCGGTTTTCCCGGTAATCCGTATTTGAA (site CGCAATCCTTT),1.27
4,CGCAATCCATGGACCGGTTTTCCCGGTAATCCGTATTTGAA (site GGCAATCCTTT),0.00324
5,CGCAATCCATGGACCGGTTTTCCCGGTAATCCGTATTTGAA (site TGCAATCCTTT),0.00288
6,CGCACCTCATGGACCGGTTTTCCCGGTAATCCGTATTTGGG (site CGCACCTCTCC),0.526
7,CGCAGACCATGGACCGGTTTTCCCGGTAATCCGTATTTGGG (site CGCAGACCTCC),0.0135
8,CGCAGTACATGGACCGGTTTTCCCGGTAATCCGTATTTGCT (site CGCAGTACTAG),1.44
9,CGCAGTACATGGACCGGTTTTCCCGGTAATCCGTATTTGCT (site CGCCGTACTAG),0
10,CGCAGTACATGGACCGGTTTTCCCGGTAATCCGTATTTGCT (site CGCGGTACTAG),0.749
11,CGCAGTACATGGACCGGTTTTCCCGGTAATCCGTATTTGCT (site CGCTGTACTAG),0
12,CGCAGTCCATGGACCGGTTTTCCCGGTAATCCGTATTTGAG (site CGCAGTCCTCT),0.438
13,CGCATATCATGGACCGGTTTTCCCGGTAATCCGTATTTGTC (site CACATATCTGA),0
14,CGCATATCATGGACCGGTTTTCCCGGTAATCCGTATTTGTC (site CCCATATCTGA),0
15,CGCATATCATGGACCGGTTTTCCCGGTAATCCGTATTTGTC (site CGCATATCTGA),1.86
16,CGCATATCATGGACCGGTTTTCCCGGTAATCCGTATTTGTC (site CTCATATCTGA),0.436
17,CGCATGTCATGGACCGGTTTTCCCGGTAATCCGTATTTGTT (site CGCATGTCTAA),2.52
18,CGCCCATCATGGACCGGTTTTCCCGGTAATCCGTATTTGCT (site CGATCATCTAG),0.57
19,CGCCCATCATGGACCGGTTTTCCCGGTAATCCGTATTTGCT (site CGCCCATCTAG),2.54

row,Sequence,recombinant UMI read abundance (log10)
1,CGCCCTACATGGACCGGTTTTCCCGGTAATCCGTATTTGCT (site CGCCATACTAG),0
2,CGCCCTACATGGACCGGTTTTCCCGGTAATCCGTATTTGCT (site CGCCCTACTAG),1.28
3,CGCCCTACATGGACCGGTTTTCCCGGTAATCCGTATTTGCT (site CGCCGTACTAG),0.0214
4,CGCCCTACATGGACCGGTTTTCCCGGTAATCCGTATTTGCT (site CGCCTTACTAG),0
5,CGCCCTCCATGGACCGGTTTTCCCGGTAATCCGTATTTGAT (site CGCCCTCCTAT),0.51
6,CGCCGTACATGGACCGGTTTTCCCGGTAATCCGTATTTGCG (site CGCCGTACTAG),0
7,CGCCGTACATGGACCGGTTTTCCCGGTAATCCGTATTTGCG (site CGCCGTACTCG),1.13
8,CGCCGTACATGGACCGGTTTTCCCGGTAATCCGTATTTGCG (site CGCCGTACTGG),0
9,CGCCGTACATGGACCGGTTTTCCCGGTAATCCGTATTTGCG (site CGCCGTACTTG),0.00693
10,CGCCTAGCATGGACCGGTTTTCCCGGTAATCCGTATTTGTT (site AGCCTAGCTAA),0.00606
11,CGCCTAGCATGGACCGGTTTTCCCGGTAATCCGTATTTGTT (site CGCCTAGCTAA),0
12,CGCCTAGCATGGACCGGTTTTCCCGGTAATCCGTATTTGTT (site GGCCTAGCTAA),0.00975
13,CGCCTAGCATGGACCGGTTTTCCCGGTAATCCGTATTTGTT (site TGCCTAGCTAA),0.00877
14,CGCGATTCATGGACCGGTTTTCCCGGTAATCCGTATTTGGA (site CGCGATTCTTC),2.31
15,CGCGCGCCATGGACCGGTTTTCCCGGTAATCCGTATTTGTT (site CGCGCGCCTAA),0.0124
16,CGCGGCCCATGGACCGGTTTTCCCGGTAATCCGTATTTGTT (site CACGGCCCTAA),0.167
17,CGCGGCCCATGGACCGGTTTTCCCGGTAATCCGTATTTGTT (site CCCGGCCCTAA),0.00728
18,CGCGGCCCATGGACCGGTTTTCCCGGTAATCCGTATTTGTT (site CGCGGCCCTAA),0.202
19,CGCGGCCCATGGACCGGTTTTCCCGGTAATCCGTATTTGTT (site CTCGGCCCTAA),0.00821

row,Sequence,recombinant UMI read abundance (log10)
1,CGCGGCTCATGGACCGGTTTTCCCGGTAATCCGTATTTGGC (site CGCGGCTCTGC),2.33
2,CGCGGTCCATGGACCGGTTTTCCCGGTAATCCGTATTTGCA (site CACGGTCCTTG),0
3,CGCGGTCCATGGACCGGTTTTCCCGGTAATCCGTATTTGCA (site CCCGGTCCTTG),0.3
4,CGCGGTCCATGGACCGGTTTTCCCGGTAATCCGTATTTGCA (site CGCGGTCCTTG),1.12
5,CGCGGTCCATGGACCGGTTTTCCCGGTAATCCGTATTTGCA (site CTCGGTCCTTG),0
6,CGCTAGGCATGGACCGGTTTTCCCGGTAATCCGTATTTGAC (site CGCTAGGCTGT),1.08
7,CGCTCATCATGGACCGGTTTTCCCGGTAATCCGTATTTGGT (site CGATCATCTAG),0.393
8,CGCTCATCATGGACCGGTTTTCCCGGTAATCCGTATTTGGT (site CGCTCATCTAC),1.17
9,CGGAAGACATGGACCGGTTTTCCCGGTAATCCGTATTTGCA (site AGGAAGACTTG),0.742
10,CGGAAGACATGGACCGGTTTTCCCGGTAATCCGTATTTGCA (site CGGAAGACTTG),1.73
11,CGGAAGACATGGACCGGTTTTCCCGGTAATCCGTATTTGCA (site GGGAAGACTTG),0
12,CGGAAGACATGGACCGGTTTTCCCGGTAATCCGTATTTGCA (site TGGAAGACTTG),0.259
13,CGGAATACATGGACCGGTTTTCCCGGTAATCCGTATTTGTC (site CGGAATACTGA),1.64
14,CGGAATACATGGACCGGTTTTCCCGGTAATCCGTATTTGTC (site CGGAATCCTAA),0.0129
15,CGGAATCCATGGACCGGTTTTCCCGGTAATCCGTATTTGGG (site CGGAATCCTAA),0
16,CGGAATCCATGGACCGGTTTTCCCGGTAATCCGTATTTGGG (site CGGAATCCTCC),0.0126
17,CGGAATTCATGGACCGGTTTTCCCGGTAATCCGTATTTGCT (site CGGAATCCTAA),0.00849
18,CGGAATTCATGGACCGGTTTTCCCGGTAATCCGTATTTGCT (site CGGAATTCTAG),2.45
19,CGGACATCATGGACCGGTTTTCCCGGTAATCCGTATTTGAT (site CGGACATCTAA),0.359
